Assay results as given in the NIST ThermoML archive (doi:10.1016/j.jct.2015.05.028).

Key:
[1] = Crystal; DTA
[2] = mn = molality of the nth substance listed, in mol/kg; conditions: 99.6 kPa, Liquid, Vibrating tube method

CCN1C(=O)N(CC)C2NC(=O)NC21 (centres undefined)
Conditions | Normal melting temperature [°C]
[1] | 327.64

CN1C(=O)N(C)C2NC(=O)NC21 (centres undefined)
Conditions | Normal melting temperature [°C]
[1] | 253.28

CN1C(=O)N(C)C2NC(=O)NC21 (centres undefined) + O
mass density [kg/m3], [2]
Conditions | 278.15 K | 288.15 K | 298.15 K | 308.15 K | 318.15 K
m1 = 0.06671 | 1003.16 | 1002.21 | 1000.08 | 997.02 | 993.153
m1 = 0.0951 | 1004.51 | 1003.52 | 1001.37 | 998.281 | 994.389
m1 = 0.1319 | 1006.28 | 1005.23 | 1003.04 | 999.917 | 995.999
m1 = 0.169 | 1008.03 | 1006.93 | 1004.72 | 1001.55 | 997.607
m1 = 0.1987 | 1009.43 | 1008.31 | 1006.04 | 1002.87 | 998.902
m1 = 0.2323 | 1011.02 | 1009.84 | 1007.54 | 1004.34 | 1000.35
m1 = 0.2679 | 1012.68 | 1011.46 | 1009.13 | 1005.9 | 1001.88
m1 = 0.3038 | 1014.37 | 1013.1 | 1010.73 | 1007.47 | 1003.42
m1 = 0.3326 | 1015.72 | 1014.41 | 1012.01 | 1008.71 | 1004.65
m1 = 0.3594 | 1016.96 | 1015.62 | 1013.19 | 1009.88 | 1005.79
m1 = 0.3919 | 1018.47 | 1017.09 | 1014.62 | 1011.29 | 1007.17

O [water] + CCN1C(=O)N(CC)C2NC(=O)NC21
Conditions | mass density [kg/m3]
[2], 278.15 K, m2 = 0 | 999.964

O [water] + CN1C(=O)N(C)C2NC(=O)NC21
Conditions | mass density [kg/m3]
[2], 278.15 K, m2 = 0 | 999.965
